Source: the supplement of paper PMC10331698
± gives the standard deviation of the averaged measurements.

Legend:
Experiment in all cases: level (log10 ratio to DMSO vehicle control); higher = higher biomarker level / cell amount than vehicle control
Conditions in all cases: in DMSO
[1] = compound: NC(=O)C(F)(F)C(F)(F)C(F)(F)C(F)F
Protocol: (§1)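 BioMAP Diversity Plus panel of 12 human primary cell co-culture systems (3C, 4H, LPS, SAg, BT, BF4T, BE3C, CASM3C, HDF3CGF, KF3CT, MyoF, Mphg). Compounds were added 1 h before stimulation and left for 24 h (MyoF 48 h; BT 72 h for soluble read-outs or 6 d for IgG). Biomarkers were read by ELISA, cytotoxicity by SRB, PBMC viability and proliferation by Alamar Blue. Each well value was divided by the mean of 8 DMSO control wells on the same plate and log10 transformed; duplicate blinded samples were tested at 4 concentrations.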

[2] = compound: O=S(=O)(O)C(F)(F)C(F)(F)C(F)(F)C(F)(F)C(F)(F)C(F)(F)C(F)(F)C(F)(F)C(F)(F)C(F)(F)F [Sodium perfluorodecanesulfonate]
Protocol: as §1

[3] = compound: FC(F)(F)C(F)(F)C(F)(F)C(F)(F)C(F)(F)C(F)(F)C(F)(F)I [1-Iodopentadecafluoroheptane]
Protocol: as §1

Heptafluorobutyl iodide = compound: FC(F)(F)C(F)(F)C(F)(F)CI [Heptafluorobutyl iodide]
Protocol: as §1

[4] = compound: FC(F)(F)C(F)(F)CNCC(F)(F)C(F)(F)F [Bis(1H,1H-perfluoropropyl)amine]
Protocol: as §1

Octafluoroadipamide = compound: NC(=O)C(F)(F)C(F)(F)C(F)(F)C(F)(F)C(N)=O [Octafluoroadipamide]
Protocol: as §1

Test System	level (log10) ([1]; 6700 nM)	level (log10) ([1]; 20000 nM)	level (log10) ([1]; 60000 nM)	level (log10) ([2]; 1500 nM)	level (log10) ([2]; 4400 nM)	level (log10) ([2]; 13000 nM)	level (log10) ([2]; 40000 nM)	level (log10) ([3]; 6700 nM)	level (log10) ([3]; 20000 nM)	level (log10) (Heptafluorobutyl iodide; 6700 nM)	level (log10) (Heptafluorobutyl iodide; 20000 nM)	level (log10) (Heptafluorobutyl iodide; 60000 nM)	level (log10) ([4]; 6700 nM)	level (log10) ([4]; 20000 nM)	level (log10) ([4]; 60000 nM)	level (log10) (Octafluoroadipamide; 6700 nM)	level (log10) (Octafluoroadipamide; 20000 nM)	level (log10) (Octafluoroadipamide; 60000 nM)
BE3C:CD87/uPAR	-0.02 ± 0.011	-0.0205 ± 0.0035	-0.0145 ± 0.015	0.029 ± 0.011	0.066 ± 0.02	0.005 ± 0.0014	-0.179 ± 0.011	0.001 ± 0.034	0.008 ± 0.011	0.0115 ± 0.033	-0.0435 ± 0.016	-0.001 ± 0.0057	-0.0335 ± 0.049	-0.0475 ± 0.06	-0.012 ± 0.018	-0.0295 ± 0.043	-0.044 ± 0.071	-0.0195 ± 0.093
BE3C:CXCL8/IL-8	0.025 ± 0.035	0.0405 ± 0.0078	0.0565 ± 0.04	0.0135 ± 0.0035	0.0345 ± 0.0021	0.083 ± 0.021	0.0225 ± 0.037	-0.0175 ± 0.0078	-0.007 ± 0.0057	0.029 ± 0.04	0.008 ± 0.037	0.021 ± 0.021	-0.041 ± 0.073	-0.0325 ± 0.036	-0.008 ± 0.03	-0.0565 ± 0.013	-0.0485 ± 0.026	-0.034 ± 0.083
BE3C:CXCL10/IP-10	0.0025 ± 0.0064	-0.0015 ± 0.016	0.007 ± 0.013	-0.0045 ± 0.029	-0.0165 ± 0.0021	-0.076 ± 0.0042	-0.201 ± 0.013	0.01 ± 0.02	0.0195 ± 0.035	-0.0015 ± 0.0064	-0.005 ± 0.0057	0.005 ± 0.013	-0.017 ± 0.035	-0.0075 ± 0.028	-0.001 ± 0.0028	-0.0275 ± 0.047	-0.031 ± 0.03	-0.0185 ± 0.056
BE3C:CXCL11/I-TAC	0.005 ± 0.0028	-0.002 ± 0.0042	0.002 ± 0.0057	0.0095 ± 0.005	0.0075 ± 0.0064	0.0185 ± 0.005	-0.0685 ± 0.036	0.0005 ± 0.015	0.004 ± 0.013	0.005 ± 0.048	-0.0175 ± 0.005	0.0245 ± 0.025	-0.026 ± 0.013	-0.0135 ± 0.016	0.008 ± 0.016	-0.0085 ± 0.0035	-0.0155 ± 0.00071	-0.014 ± 0.021
BE3C:EGFR	0.0055 ± 0.019	0.0065 ± 0.032	-0.008 ± 0.0099	0.0185 ± 0.0035	0.0015 ± 0.0064	-0.022 ± 0.014	-0.032 ± 0.027	0.014 ± 0.0071	0.0185 ± 0.026	-0.015 ± 0.017	-0.019 ± 0.0071	0.0015 ± 0.005	-0.011 ± 0.014	-0.008 ± 0.0057	0.0065 ± 0.021	-0.019 ± 0.016	-0.014 ± 0.0099	0.004 ± 0.04
BE3C:HLA-DR	0.0065 ± 0.016	0.008 ± 0.0057	-0.0025 ± 0.023	0.0005 ± 0.013	-0.02 ± 0.014	-0.0755 ± 0.032	-0.406 ± 0.041	0.0035 ± 0.0021	0.0015 ± 0.0078	-0.0055 ± 0.0064	-0.022 ± 0.024	-0.0035 ± 0.018	-0.0025 ± 0.012	-0.0115 ± 0.0021	0.012 ± 0.031	-0.003 ± 0.0014	-0.0015 ± 0.00071	0.0175 ± 0.037
BF4T:CCL2/MCP-1	0.008 ± 0.0042	-0.0135 ± 0.0092	0.0165 ± 0.047	0.0015 ± 0.011	0.008 ± 0.018	0.0125 ± 0.043	0.051 ± 0.0042	-0.0105 ± 0.0092	0.011 ± 0.02	0.0025 ± 0.028	0.068 ± 0.11	0.046 ± 0.023	-0.004 ± 0.014	-0.009 ± 0.027	-0.0295 ± 0.015	0.003 ± 0.011	-0.0025 ± 0.0064	-0.02 ± 0.031
BF4T:CD90	-0.002 ± 0.0085	-0.0125 ± 0.0092	0.001 ± 0.0028	-0.0085 ± 0.012	-0.0055 ± 0.005	-0.0065 ± 0.0035	0.002 ± 0.0057	0.001 ± 0.016	-0.0025 ± 0.0021	0.003 ± 0.018	-0.009 ± 0.0028	0.001 ± 0.017	-0.01 ± 0.0085	-0.004 ± 0.0071	0.011 ± 0.018	-0.0155 ± 0.0078	-0.0145 ± 0.0021	-0.0125 ± 0.021
BF4T:CD106/VCAM-1	-0.015 ± 0.0028	-0.014 ± 0.0042	-0.003 ± 0.023	-0.0095 ± 0.021	-0.0125 ± 0.069	-0.096 ± 0.035	-0.106 ± 0.028	-0.005 ± 0.011	-0.031 ± 0.0028	-0.016 ± 0.0057	-0.021 ± 0.0042	0.017 ± 0.045	-0.034 ± 0.0057	-0.034 ± 0.017	0.008 ± 0.069	-0.0265 ± 0.021	-0.0215 ± 0.016	0.0155 ± 0.061
BF4T:CXCL8/IL-8	0 ± 0.0071	-0.0105 ± 0.005	-0.009 ± 0.0071	0.0305 ± 0.069	0.034 ± 0.0099	0.0995 ± 0.021	0.136 ± 0.0057	0.0515 ± 0.079	0.0425 ± 0.044	0.0085 ± 0.029	0.061 ± 0.11	0.0505 ± 0.063	-0.0295 ± 0.013	-0.027 ± 0.0028	-0.0105 ± 0.021	-0.0185 ± 0.0064	-0.022 ± 0.011	-0.003 ± 0.044
BF4T:IL-1alpha	-0.0175 ± 0.021	-0.004 ± 0.0028	-0.002 ± 0.0057	0.037 ± 0.034	-0.0165 ± 0.033	0.0095 ± 0.011	-0.0155 ± 0.0064	-0.0035 ± 0.0035	0.003 ± 0.0014	-0.017 ± 0.016	-0.0125 ± 0.0035	-0.015 ± 0.05	-0.007 ± 0.014	-0.0135 ± 0.015	0.0105 ± 0.049	0.007 ± 0.0071	-0.005 ± 0.0071	0.0215 ± 0.018
BF4T:MMP-1	0.003 ± 0.0085	-0.003 ± 0.0085	0.0075 ± 0.0035	0.009 ± 0.013	-0.0095 ± 0.0078	0.001 ± 0.0014	0.0245 ± 0.005	-0.0055 ± 0.018	0.0005 ± 0.0035	-0.005 ± 0.013	-0.0055 ± 0.0035	0.0055 ± 0.012	-0.009 ± 0.0071	-0.0005 ± 0.00071	0.01 ± 0.011	-0.006 ± 0.0099	-0.0095 ± 0.0021	0.004 ± 0.016
BF4T:MMP-3	0.01 ± 0.033	-0.005 ± 0.047	0.0075 ± 0.047	-0.0175 ± 0.032	-0.002 ± 0.0099	0.0175 ± 0.0078	0.054 ± 0.0042	-0.0345 ± 0.039	-0.0315 ± 0.016	0.0245 ± 0.036	-0.02 ± 0.0014	0.026 ± 0.017	-0.013 ± 0.0028	-0.0125 ± 0.0092	0.001 ± 0.025	-0.0145 ± 0.0078	-0.0145 ± 0.015	0.003 ± 0.038
BF4T:MMP-9	0.013 ± 0.051	-0.006 ± 0.055	-0.001 ± 0.047	0.0255 ± 0.0078	-0.007 ± 0.045	-0.0285 ± 0.015	-0.058 ± 0.021	-0.0345 ± 0.063	-0.019 ± 0.013	-0.008 ± 0.0085	-0.018 ± 0.013	0.0025 ± 0.03	-0.013 ± 0.0057	-0.013 ± 0.0042	0.0085 ± 0.036	-0.0245 ± 0.005	-0.016 ± 0.016	0.0115 ± 0.046
BF4T:PAI-I	-0.0005 ± 0.019	-0.0095 ± 0.021	0.004 ± 0.0085	-0.0015 ± 0.0092	0.0175 ± 0.005	0.0125 ± 0.0035	0.021 ± 0.0071	-0.004 ± 0.0085	-0.0235 ± 0.0092	0.0005 ± 0.0092	-0.002 ± 0.0042	0.0065 ± 0.021	-0.008 ± 0.0014	-0.005	0.006 ± 0.016	-0.0005 ± 0.0035	-0.0035 ± 0.00071	0.015 ± 0.023
BF4T:SRB	-0.0075 ± 0.00071	-0.0125 ± 0.011	-0.0025 ± 0.0078	0.004 ± 0.0071	-0.0055 ± 0.005	0 ± 0.0057	0.006 ± 0.016	-0.0085 ± 0.0092	-0.008 ± 0.0014	0.001 ± 0.0028	-0.002 ± 0.0071	0.0015 ± 0.0064	-0.004 ± 0.0071	-0.0065 ± 0.0064	0.0005 ± 0.0078	-0.006 ± 0.0071	-0.002 ± 0.0028	0.001 ± 0.0071
